Patent US20230049952A1, “METHODS AND COMPOUNDS FOR RESTORING MUTANT P53 FUNCTION” (PMV Pharmaceuticals, Inc., priority 2020, published 2023)

Test system: p53 signaling pathway in MT373 tumors
Assay: MT373 syngeneic sarcoma model: mouse p53 signaling pathway profiling panel
Format: in vivo

## CCn1c(C#CCNc2ccccc2)cc2cc(CNC3CCN(C)CC3)ccc21 [Compound 1, 1-Anilino-3-{1-ethyl-5-[(1-methyl-4-piperidylamino)methyl]-1H-indol-2-yl}-2-propyne]
150 mg/kg BIDx1, 48 h
  Sirt1 fold increase or percent reduction vs vehicle control: 13.36 fold or %
  Stat1 fold increase or percent reduction vs vehicle control: 1.72 fold or %
  Tnf fold increase or percent reduction vs vehicle control: 27.80 fold or %
  Traf1 fold increase or percent reduction vs vehicle control: 1.04 fold or %
  Trp53bp2 fold increase or percent reduction vs vehicle control: 8.14 fold or %
  Trp53 fold increase or percent reduction vs vehicle control: 22.40 fold or %
150 mg/kg BIDx1, 72 h
  Apex1 fold increase or percent reduction vs vehicle control: 15.68 fold or %
  Atm fold increase or percent reduction vs vehicle control: 18.10 fold or %
  Atr fold increase or percent reduction vs vehicle control: 1.15 fold or %
  Bag1 fold increase or percent reduction vs vehicle control: 21.87 fold or %
  Bax fold increase or percent reduction vs vehicle control: 21.38 fold or %
  Bbc3 fold increase or percent reduction vs vehicle control: 1.10 fold or %
  Bcl2 fold increase or percent reduction vs vehicle control: 6.74 fold or %
  Bid fold increase or percent reduction vs vehicle control: 2.75 fold or %
  Birc5 fold increase or percent reduction vs vehicle control: 24.85 fold or %
  Brca1 fold increase or percent reduction vs vehicle control: 17.44 fold or %
  Brca2 fold increase or percent reduction vs vehicle control: 19.53 fold or %
  Btg2 fold increase or percent reduction vs vehicle control: 23.10 fold or %
  Casp2 fold increase or percent reduction vs vehicle control: 8.98 fold or %
  Ccnb1 fold increase or percent reduction vs vehicle control: 18.77 fold or %
  Ccne1 fold increase or percent reduction vs vehicle control: 1.04 fold or %
  Ccng1 fold increase or percent reduction vs vehicle control: 11.26 fold or %
  Ccnh fold increase or percent reduction vs vehicle control: 5.78 fold or %
  Cdc25a fold increase or percent reduction vs vehicle control: 1.65 fold or %
  Cdk1 fold increase or percent reduction vs vehicle control: 22.76 fold or %
  Cdk4 fold increase or percent reduction vs vehicle control: 19.73 fold or %
  Cdkn1a fold increase or percent reduction vs vehicle control: 13.49 fold or %
  Cdkn2a fold increase or percent reduction vs vehicle control: 20.75 fold or %
  Chek1 fold increase or percent reduction vs vehicle control: 17.70 fold or %
  Cradd fold increase or percent reduction vs vehicle control: 16.72 fold or %
  Cul9 fold increase or percent reduction vs vehicle control: 1.54 fold or %
  Dapk1 fold increase or percent reduction vs vehicle control: 1.39 fold or %
  Dnmt1 fold increase or percent reduction vs vehicle control: 1.03 fold or %
  E2f1 fold increase or percent reduction vs vehicle control: 1.10 fold or %
  E2f3 fold increase or percent reduction vs vehicle control: 17.09 fold or %
  Egfr fold increase or percent reduction vs vehicle control: 13.15 fold or %
  Egr1 fold increase or percent reduction vs vehicle control: 38.21 fold or %
  Ep300 fold increase or percent reduction vs vehicle control: 2.74 fold or %
  Ercc1 fold increase or percent reduction vs vehicle control: 20.27 fold or %
  Esr1 fold increase or percent reduction vs vehicle control: 1.82 fold or %
  Fadd fold increase or percent reduction vs vehicle control: 1.18 fold or %
  Fas fold increase or percent reduction vs vehicle control: 12.10 fold or %
  Fasl fold increase or percent reduction vs vehicle control: 1.29 fold or %
  Foxo3 fold increase or percent reduction vs vehicle control: 1.08 fold or %
  Gadd45a fold increase or percent reduction vs vehicle control: 12.31 fold or %
  Hif1a fold increase or percent reduction vs vehicle control: 1.18 fold or %
  Il6 fold increase or percent reduction vs vehicle control: 61.14 fold or %
  Jun fold increase or percent reduction vs vehicle control: 20.41 fold or %
  Kras fold increase or percent reduction vs vehicle control: 1.08 fold or %
  Lig4 fold increase or percent reduction vs vehicle control: 1.27 fold or %
  Mdm2 fold increase or percent reduction vs vehicle control: 1.10 fold or %
  Mdm4 fold increase or percent reduction vs vehicle control: 13.89 fold or %
  Mel1 fold increase or percent reduction vs vehicle control: 17.68 fold or %
  Mlh1 fold increase or percent reduction vs vehicle control: 1.52 fold or %
  Msh2 fold increase or percent reduction vs vehicle control: 4.98 fold or %
  Myod1 fold increase or percent reduction vs vehicle control: 3.03 fold or %
  Nf1 fold increase or percent reduction vs vehicle control: 12.40 fold or %
  Nfkb1 fold increase or percent reduction vs vehicle control: 1.15 fold or %
  Pcna fold increase or percent reduction vs vehicle control: 21.44 fold or %
  Pmaip1 fold increase or percent reduction vs vehicle control: 1.41 fold or %
  Ppm1d fold increase or percent reduction vs vehicle control: 0.20 fold or %
  Prkca fold increase or percent reduction vs vehicle control: 4.15 fold or %
  Pten fold increase or percent reduction vs vehicle control: 1.14 fold or %
  Pttg1 fold increase or percent reduction vs vehicle control: 1.19 fold or %
  Rb1 fold increase or percent reduction vs vehicle control: 3.47 fold or %
  Rela fold increase or percent reduction vs vehicle control: 2.50 fold or %
  Rprm fold increase or percent reduction vs vehicle control: 1.51 fold or %
  Serpinb5 fold increase or percent reduction vs vehicle control: 1.00 fold or %
  Sesn2 fold increase or percent reduction vs vehicle control: 1.31 fold or %
  Sfn fold increase or percent reduction vs vehicle control: 7.33 fold or %
  Sirt1 fold increase or percent reduction vs vehicle control: 1.08 fold or %
  Stat1 fold increase or percent reduction vs vehicle control: 1.78 fold or %
  Tnf fold increase or percent reduction vs vehicle control: 1.15 fold or %
  Traf1 fold increase or percent reduction vs vehicle control: 1.41 fold or %
  Trp53bp2 fold increase or percent reduction vs vehicle control: 1.07 fold or %
  Trp53 fold increase or percent reduction vs vehicle control: 1.21 fold or %
150 mg/kg BID×1, 24 h
  Bbc3 mRNA increase: 2.27 fold
  Birc5 mRNA decrease: 53.57%
  Ccng1 mRNA increase: 6.84 fold
  Cdc25c mRNA decrease: 41.75%
  Cdk1 mRNA decrease: 64.58%
  Cdkn1a mRNA increase: 10.93 fold
  Chek1 mRNA decrease: 58.77%
  Egfr mRNA change: 47.37%
